Here are results for 14 compounds from US9884806B2, “Cyclic vinylogous amides as bromodomain inhibitors” (ICAHN SCHOOL OF MEDICINE AT MOUNT SINAI, priority 2013, dated 2018).

One may read the IC50 as the concentration that gives 50% inhibition.

The target in test [1] is T1, first bromodomain (BrD1) of human BRD4 (Homo sapiens, UniProt O60885).
T1 construct: the first bromodomain (BrD1) of human BRD4; poly-His (cleaved yes); made in house
The experiment in a line: Fluorescence anisotropy binding assay (competition with FITC-labeled MS417 probe). The settings on record: FITC-MS417 probe 80 nM, PBS pH 7.4, 1 hour, 25° C., read-out: BRD4_1 IC50. In short, it runs like this: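 Competitive fluorescence anisotropy in PBS pH 7.4: 80 nM FITC-MS417 probe, 0.25 to 1 μM tag-cleaved BrD1, titrated unlabeled ligand, 1 hour at 25° C. IC50 values were fitted and converted to Ki using a corrected Cheng-Prusoff equation assuming one-site competition.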

Another test deals with T2, BRD4_2 (Homo sapiens, UniProt O60885).
T2 construct: contains two tandem bromodomains (BrD1 and BrD2)
Put plainly: Fluorescence anisotropy binding assay (competition with FITC-labeled MS417 probe), BRD4_2. The following applies: FITC-MS417 probe 80 nM, PBS pH 7.4, 1 hour, 25° C. For orientation: Polarisation of emitted light reports the rotation of a fluorescent probe.

A value given as a limit tells only on which side of the number the result lay.

Regarding `CC1=C(Nc2cc(C(=O)Nc3ccc(C(=O)O)cc3C)ccc2Cl)CCCC1=O` [Example 04-97, 4-(4-chloro-3-((2-methyl-3-oxocyclohex-1-en-1-yl)amino)benzamido)-3-methylbenzoic acid], the IC50 in test [1] was 1 to 10 µM; at BRD4_2 it was greater than 10 µM.

As for `COc1ccc(NC(=O)Cc2ccc(NC3=C(C)C(=O)CCC3)cc2)cc1` [Example 04-99, N-(4-methoxyphenyl)-2-(4-((2-methyl-3-oxocyclohex-1-en-1-yl)amino)phenyl)-acetamide], the IC50 (in test [1]; on BRD4_2) was 1 to 10 µM each time.

In the case of `COc1ccc(NC(=O)c2cc(NC3=C(C)C(=O)CCC3)cc3ccccc23)cc1` [Example 04-105, N-(4-methoxyphenyl)-3-((2-methyl-3-oxocyclohex-1-en-1-yl)amino)-1-naphthamide], the IC50 is less than 1 µM in test [1] and 1 to 10 µM at BRD4_2.

In the case of `COC(=O)c1ccc(NC2=C(C)C(=O)CCC2)c(Cl)c1` [Example 05-12, methyl 3-chloro-4((2-methyl-3-oxocyclohex-1-en-1-yl)amino)benzoate], the IC50 (in test [1]; on BRD4_2) was 1 to 10 µM in each case.

Turning to `COc1ccccc1NC(=O)c1ccc(NC2=C(C)C(=O)CCC2)c(Cl)c1` [Example 05-14, 3-chloro-N-(2-methoxyphenyl)-4-((2-methyl-3-oxocyclohex-1-en-1-yl)amino)benzamide], the IC50 in test [1] was less than 1 µM; on BRD4_2, 1 to 10 µM.

On to `COc1ccc(NC(=O)c2ccc(NC3=C(C)C(=O)CC3)c(F)c2)cc1` [Example 05-17, 3-fluoro-N-(4-methoxyphenyl)-4-((2-methyl-3-oxocyclopent-1-en-1-yl)amino)benzamide], for which the IC50 (in test [1]; on BRD4_2) was 1 to 10 µM in each case.

`COc1ccc(NC(=O)c2ccc(NC3=C(C)C(=O)CC3)c(Br)c2)cc1` [Example 05-18, 3-bromo-N-(4-methoxyphenyl)-4-((2-methyl-3-oxocyclopent-1-en-1-yl)amino)benzamide]: the IC50 in test [1] is less than 1 µM; on BRD4_2, 1 to 10 µM.

Regarding `N#CC1=C(Nc2cccc(Cl)c2)CCCC1=O` [Example 05-32, 2-((3-chlorophenyl)amino)-6-oxocyclohex-1-enecarbonitrile], the IC50 (in test [1]; on BRD4_2) was greater than 10 µM each time.

For `N#CC1=C(Nc2cc(C(=O)O)ccc2Cl)CCCC1=O` [Example 05-33, 4-chloro-3-((2-cyano-3-oxocyclohex-1-en-1-yl)amino)benzoic acid], the IC50 (in test [1]; on BRD4_2) was greater than 10 µM in each case.

For `Cc1ccccc1NC(=O)c1ccc(Cl)c(NC2=C(C#N)C(=O)CCC2)c1` [Example 05-34, 4-chloro-3-((2-cyano-3-oxocyclohex-1-en-1-yl)amino)-N-(o-tolyl)benzamide], the IC50 (in test [1]; on BRD4_2) was greater than 10 µM in each case.

On to `COc1ccc(NC(=O)c2ccc(Cl)c(NC3=C(C#N)C(=O)CCC3)c2)cc1` [Example 05-35, 4-chloro-3-((2-cyano-3-oxocyclohex-1-en-1-yl)amino)-N-(4-methoxyphenyl)benzamide], for which the IC50 (in test [1]; at BRD4_2) was greater than 10 µM each time.

With `COc1ccc(NC(=O)c2ccc(Cl)c(NC3=C(C#N)C(=O)CCC3)c2)c(C)c1` [Example 05-36, 4-chloro-3-((2-cyano-3-oxocyclohex-1-en-1-yl)amino)-N-(4-methoxy-2-methylphenyl)benzamide], the IC50 (in test [1]; on BRD4_2) was greater than 10 µM throughout.

Take `CC1=C(Nc2cccc(NC(=O)c3ccccc3C)c2Cl)CCCC1=O` [Example 05-50, N-(2-chloro-3-((2-methyl-3-oxocyclohex-1-en-1-yl)amino)phenyl)-2-methylbenzamide]: the IC50 in test [1] was 1 to 10 µM; at BRD4_2, greater than 10 µM.

`CC1=C(Nc2cc(NS(=O)(=O)c3ccccc3Cl)ccc2Cl)CCC1=O` [Example 05-56, N-(4-chloro-3-((2-methyl-3-oxocyclopent-1-en-1-yl)amino)-phenyl)-2-chlorobenzenesulfonamide]: the IC50 (in test [1]; on BRD4_2) was less than 1 µM in each case.
